In patent US12029755B2, “Carbon monoxide-based therapies and implantable devices for the treatment of vascular disease” (THE REGENTS OF THE UNIVERSITY OF MICHIGAN, priority 2017, dated 2024):

How the values were obtained:
C57B/6J mice = assay: IVC flow-restriction (stenosis) model of venous thrombosis; format: in vivo, mouse
Procedure: To determine whether carbon monoxide-releasing molecules can be used as a therapeutic in prevention of flow-restriction mediated venous thrombosis (a model of venous thrombosis that mimics human venous clot, unlike IVC ligation), mice were injected with CORM-3 (Sigma SML0496, 10 mg/kg intraperitoneal injection) and subjected to IVC flow-restriction to induce thrombosis. Remarkably, CORM-3 treated mice developed no venous thrombus (0%, n=5) compared with controls (48%, n=21. P=0.001).
“Flow restriction” (Stenosis) thrombosis model: Partial IVC stenosis Model of Venous Thrombosis (FIG. 5) This model is a “flow-restriction” (or “stenosis) model in which the lumen is reduced by ˜90%. This model invokes disturbed flow at the stenosis site as a model for turbulent flow in venous valve pockets, where thrombi frequently develop. It also has applications to human venous “impingement” conditions, such as May Thurner syndrome. Mice, weighing 20 to 30 g, were anesthetized using an inhalation mixture of isoflurane gas (1.5%-2%) and oxygen (100%), placed in dorsal recumbence, and the IVC was approached directly via a midline laparotomy utilizing aseptic technique. A 7-0 Prolene suture (Ethicon, Inc. Somerville, NJ) was fastened around the IVC over a blunted 30-gauge needle (which serves as a spacer). […] Mice were humanely euthanized and thrombus formation assessed 2-7 days after laparotomy.

WT mice = assay: IVC ligation (stasis) model of venous thrombosis with inhaled CO exposure; format: in vivo, mouse; settings: for Venous stasis thrombus burden / Vessel wall leukocyte infiltration: 7 d inhaled CO, 250 ppm for 1 hour twice daily, after IVC ligation, vs normoxia-treated controls
Procedure: Carbon monoxide was focused on for these studies because it is an end product from heme degradation by HO-1.
The effect of CO on large vein thrombogenesis was determined. WT mice undergo venous thrombus induction by stasis or stenosis, followed by exposure to inhaled CO (250 ppm) for one hour twice daily. […] Thrombus burden was assessed as in SA1 indirectly (ultrasound, FIG. 6) and directly (thrombus weight/length), at pre-determined time points after surgery (1 d, 2 d, 7 d, 10 d, 21 d).
The mouse makes an excellent animal model of stasis-induced venous thrombosis. Mice, weighing 20 to 30 g, were anesthetized with an inhalation mixture of isoflurane gas (1.5% to 2%) and oxygen (100%), placed in dorsal recumbency and aseptically prepped for surgery. A midline laparotomy was made, the small bowel was exteriorized from the body cavity and moved slightly to the left of the animal, and then the IVC was directly approached by careful blunt dissection. Blunt dissection was facilitated using a sterile applicator swab and extra delicate half curved tissue forceps. Care was taken in handling mouse tissue due to its fragility. Periodically, the exteriorized bowel was moistened with sterile saline to prevent its desiccation. For consistent thrombus formation (90 to 95%), ligation of the IVC with a 7-0 prolene below the renal veins, ligation of an occasional side venous branch and cauterization of a deep posterior branch was performed if indicated to account for normal variation in anatomy. The laparotomy incision was closed in a 2-layer fashion using a 5-0 nonreactive suture material and VetBond glue (3M). Harvest of the IVC was performed at pre-determined time points.
Inhaled Carbon monoxide exposure: Mice were randomly assigned to the normoxia or carbon monoxide exposure group prior to IVC ligation or stenosis surgery. The carbon monoxide group was exposed to 250 ppm CO at a flow rate of 10 L/min for 1 h twice daily. One cohort of mice received “pre-conditioning” with CO exposure 1 day prior to surgery. To achieve 75% O2, 100% O2 is delivered at a flow rate of 0.5 l/min into a custom-made 1.5-m^3 plastic chamber. Oxygen concentrations were monitored continuously with an oxygen analyzer (Neutronics, Exton, PA), gas lines were filtered with activated charcoal to remove excess ammonia, and calcium chloride used to maintain CO2 levels below 0.05%. A CO analyzer (Ntron model 1100; Neutronics, Exton, PA) were used to monitor CO levels continuously in the chamber.

[1] = test system: heme oxygenase-1 expression; assay: HO-1 expression in sham-operated WT IVC by quantitative RT-PCR and immunoblotting; format: in vivo, mouse; settings: CO exposure (inhaled CO or CORM), sham-operated WT IVC compared with normoxic controls
Procedure: Also, it was determined that CO exposure (inhaled CO or CORM) induces heme oxygenase-1 expression in sham-operated WT IVC compared with normoxic controls by quantitative RT-PCR and immunoblotting. Therefore, inhaled CO can trigger a venous anti-inflammatory and anti-thrombotic program. Also, whether CO or CORM treatment alone is sufficient to rescue HO-1^−/− mice from exaggerated early venous thrombosis was assessed. HO-1^−/− mice undergo venous stasis or stenosis thrombus induction, followed by CORM or inhaled CO treatment. Thrombus size was measured at the time of expected peak thrombus burden.

humans = settings: dose up to 500 ppm, clinical trials; cited from earlier work

With NCC(=O)O.[CH+]=O.[CH+]=O.[CH+]=O.[Cl][Ru] [CORM-3, tricarbonylchloro(glycinato)ruthenium (II)] the “Protection from venous thrombus compared with controls” value (C57B/6J mice; C57B/6J mice treated with CORM-3, VT induction by IVC flow-restriction) was “protected from venous thrombus” and the “Frequency of clot (venous thrombus)” value (C57B/6J mice; CORM-3 10 mg/kg intraperitoneal injection, IVC flow-restriction, n=5, controls 48% (n=21)) was 0%.

With [C-]#[O+] [CO, carbon monoxide] the “Venous stasis thrombus burden” value (WT mice) was “reduced”, the “Vessel wall leukocyte infiltration” value (WT mice) was “reduced” and the “Venous stasis thrombus burden” value (WT mice; listed as carbon monoxide) was “profound reduction”. For the same molecule, the “Vessel wall leukocyte infiltration” value (WT mice; listed as carbon monoxide) was “profound reduction”, the “Thrombus size at 7 days” value (WT mice; WT mice, thrombus induction by stasis or stenosis, inhaled CO 250 ppm one hour twice daily) was “robust reduction” and the “Heme oxygenase-1 expression in IVC” value [1] was “induces”. For the same molecule, the “Safety of inhaled CO dose” value (humans) was “safe”.
